Assay results reported in patent US20260008862A1, “Bispecific Anti-BCMA x Anti-CD3 Antibodies and Uses Thereof” (Regeneron Pharmaceuticals, Inc., priority 2018, published 2026).
pEC50: −log10 of the molar value. Read-outs that look alike come from different tables or passages of the source.

How the values were obtained:
[1] = tested on: BCMA-expressing NCI-H929 tumors; test: NCI-H929 + PBMC xenogenic tumor model, immediate treatment, 4 mg/kg (Example 10); type: in vivo, mouse
Experimental: To determine the in vivo efficacy of BCMA×CD3 bispecific antibodies (Abs), a xenogenic tumor study was performed. Immunodeficient NOD.Cg-Prkdc^scidIl2rg^tm1Wji/SzJ (NSG) mice were subcutaneously implanted with a mixture of 10×10^6 BCMA-expressing NCI-H929 multiple myeloma cells and 0.5×10^6 human peripheral blood mononuclear cells (PBMC) isolated from a normal donor. […] The mice were administered Abs twice per week for a total of three weeks, and tumor growth was assessed over 40 days. While BCMA^+ tumors grew similarly in the vehicle-, isotype control-, and CD3-binding control-treated mice, both BCMA×CD3 Abs that were tested prevented the growth of tumors in vivo.
Implantation and measurement of syngeneic tumors: NSG mice were subcutaneously implanted with a mixture of 10×10^6 BCMA-expressing NCI-H929 multiple myeloma cells and 0.5×10^6 PBMC derived from a normal donor. […] The mice were administered Abs twice per week for a total of three weeks. Tumor growth was measured with calipers twice per week for the duration of the experiment. Mice were sacrificed 40 days after tumor implantation.
Calculation of syngeneic tumor growth and inhibition: In order to determine tumor volume by external caliper, the greatest longitudinal diameter (length in mm) and the greatest transverse diameter (width in mm) were determined. Tumor volumes based on caliper measurements were calculated by the formula: Volume (mm^3)=(length×width^2)/2.

[2] = tested on: primary multiple myeloma blast cells; test: FACS cytotoxicity assay, autologous T cell-mediated killing of primary multiple myeloma blast cells; type: cell-based, human; conditions: for pEC50: read-out: MM Lysis EC50
Experimental: In order to monitor the specific killing of multiple myeloma cells by flow cytometry, bone marrow mononuclear cells (BMMC) from multiple myeloma patients were plated on human stromal cells (HS5) and rested overnight at 37 C. Separately, matching patient peripheral blood mononuclear cells (PBMC) were thawed and cultured in supplemented RPMI media at 1×10^6 cells/mL overnight at 37° C. in order to enrich for lymphocytes by depleting adherent cells. The next day, BMMC were co-incubated with adherent cell-depleted naïve PBMC on stromal cells (HS5) and a serial […] dilution of BCMA×CD3 bispecific or 1-arm CD3 isotype control (starting concentration 66.7 nM) at 37° C. Cells were removed from cell culture plates at day 3, 4 or 7 and analyzed by FACS. For the assessment of specificity of killing, multiple myeloma cells were gated as single, live, CD90 negative (to exclude stromal cells), CD2 negative, CD56 positive. CD45 was low on multiple myeloma cells in most samples except MM455. Percent of live target cells was reported for the calculation of adjusted survival as follows: Adjusted survival=(R1/R2)*100, where R1=% live target cells in the presence of antibody, and R2=% live target cells in the absence of test antibody.
T cells were gated as CD2 positive, CD56 negative and either CD4 or CD8 positive. T cell activation was reported as the percent of CD25+CD4 or CD8 T cells out of total CD4 or CD8 T cells.

[3] = tested on: Jurkat/NFATLuc.3C7 cells + Daudi cells; test: Jurkat/NFATLuc reporter bioassay with Daudi cells; type: cell-based; conditions: highest RLU / lowest RLU
Experimental: Activity of the anti-BCMA×anti-CD3 bispecific antibodies were assessed in a Jurkat/NFATLuc reporter bioassay utilizing several cell lines with varying levels of BCMA surface expression. The Jurkat cells were engineered to express an NFAT-luciferase reporter (Jurkat/NFATLuc.3C7), and 50,000 Jurkat reporter cells were combined with 50,000 BCMA positive (Daudi, MM1-S, NCI-H929, OPM-2, RPMI-8226, MOLP-8, or Raji) or BCMA negative (HEK293) cells in Thermo Nunclon delta 96 well white microwell plates (Thermo Scientific, Cat #136102) in 50 ul of assay media (RPMI media with 10% FBS and 1% P/S/G). Three-fold serial dilutions of the BCMA×CD3 bispecific antibodies (mAb25441 D or mAb25442D), or a bivalent anti-BCMA antibody (mAb21581) were immediately added in 50 μL of assay buffer. The plates were gently agitated and incubated in a 37° C., 5% CO2 incubator for 4-6 hours. NFAT-Luciferase activity was determined using Promega One-Glo (Cat #E6130) and a Perkin Elmer Envision plate reader. RLU were plotted in GraphPad Prism using a four-parameter logistic equation over a 12-point response curve to calculate EC50 values. […] The signal to noise (S:N) is determined by taking the ratio of the highest RLU on the curve to the lowest.

[4] = sample MM2, newly diagnosed, E:T 1.4, 7 days
[5] = sample MM369, newly diagnosed, E:T 0.3, 3 days
[6] = sample MM453, newly diagnosed, E:T 2.4, 3 days
[7] = sample MM455, progression, treated, E:T 0.4, 3 days

Substance | Average Tumor Size (mm3) ± SEM on Day 4 [1] | Average Tumor Size (mm3) ± SEM on Day 7 [1] | Average Tumor Size (mm3) ± SEM on Day 11 [1] | Average Tumor Size (mm3) ± SEM on Day 14 [1] | Average Tumor Size (mm3) ± SEM on Day 18 [1] | Average Tumor Size (mm3) ± SEM on Day 21 [1] | Average Tumor Size (mm3) ± SEM on Day 28 [1] | Average Tumor Size (mm3) ± SEM on Day 40 [1] | pEC50 ([2]; sample MM2, E:T 1.4, 7 days) | % MM lysis at 66 nM [2, 4] | pEC50 ([2]; sample MM369, E:T 0.3, 3 days) | % MM lysis at 66 nM [2, 5] | pEC50 ([2]; sample MM453, E:T 2.4, 3 days) | % MM lysis at 66 nM [2, 6] | pEC50 ([2]; sample MM455, E:T 0.4, 3 days) | % MM lysis at 66 nM [2, 7] | S:N [3]
REGN5459: anti-BCMA×anti-CD3 bispecific antibody: BCMA HCVR of mAb21581 (SEQ 66), CD3 HCVR of mAb7221G20 (SEQ 98), common LCVR SEQ 82 | 26.5 ± 6.2 mm3 | 0 ± 0 mm3 | 0 ± 0 mm3 | 0 ± 0 mm3 | 0 ± 0 mm3 | 0 ± 0 mm3 | 0 ± 0 mm3 | 0 ± 0 mm3 | 8.14 | 85% | 9.30 | 94% | 8.92 | 80% | 7.10 | 52% | 25
REGN5458: anti-BCMA×anti-CD3 bispecific antibody: BCMA HCVR of mAb21581 (SEQ 66), CD3 HCVR of mAb7221G (SEQ 90), common LCVR SEQ 82 | 39.5 ± 9.1 mm3 | 0 ± 0 mm3 | 0 ± 0 mm3 | 0 ± 0 mm3 | 0 ± 0 mm3 | 0 ± 0 mm3 | 0 ± 0 mm3 | 0 ± 0 mm3 | 9.13 | 88% | – | 96% | 10.00 | 82% | 8.44 | 63% | 43
